Fold induction data for 31 compounds are collected here from patent US20140018384A1, “QUINOLINONE DERIVATIVES FOR USE IN THE TREATMENT OF AN AUTOIMMUNE DISEASE AND/OR AN INFLAMMATORY DISEASE” (PRONOXIS AB, priority 2011, published 2014).

Read-outs that look alike come from different tables or passages of the source.

The test system of the assay is PLB-985 cells. Briefly: ROS production (isoluminol/HRP luminescence) in PLB-985 cells, Biological Example 1. In kind it is cell-based. Here is the method: To cells (HL-60 or PLB-985) in HBSS medium was added compound (25 or 50 μM), isoluminol and Horse Radish Peroxidase, fraction II. Luminescence was measured for 10-30 minutes and the area under the […] curve was divided by that from a control experiment to give the activity expressed as fold change.
Each assay indicated below was performed at a different site, at a different time, by different personnel and/or using different cell lines, concentrations and controls. The cell line, concentration of example compound and control used in respect of each assay were as indicated below. The values obtained from these different setups (each using an otherwise identical assay) are given as Activity A, B, C, D or E in Table 5 below. The values are expressed as fold increase of NADPH activity in the presence of the relevant of compound (as indicated below) compared to the relevant control (as indicated below).
Activity A: HL-60 cells; 50 μM compound vs. blank Activity B: PLB-985 cells; 25 μM compound vs. blank Activity C, D and E: PLB-985 cells; 25 μM compound vs. DMSO

The mark [1] stands for this setting: 25 μM compound vs. DMSO, setup D, read-out: Activity D (fold increase of NADPH activity compared to control).
[2] abbreviates: 25 μM compound vs. DMSO, setup C, read-out: Activity C (fold increase of NADPH activity compared to control).
[3] abbreviates: 25 μM compound vs. blank, read-out: Activity B (fold increase of NADPH activity compared to control).
[4] abbreviates: 25 μM compound vs. DMSO, setup E, read-out: Activity E (fold increase of NADPH activity compared to control).

Take `COc1cc2c(=O)c(C(=O)c3ccc4ccccc4c3)cn(CC(=O)Nc3ccc(Cl)cc3)c2cc1OC` [Example 17, N-(4-Chlorophenyl)-2-[6,7-dimethoxy-3-(2-naphthoyl)-4-oxo-1-quinolinyl]acetamide]: the fold induction at 25 µM under setting [1] was 16.3.

Turning to `O=C(Cn1cc(C(=O)c2ccc(Cl)cc2)c(=O)c2cc3c(cc21)OCO3)Nc1ccc(Cl)cn1` [Example 36, 2-[3-(4-Chlorobenzoyl)-6,7-methylenedioxy-4-oxo-1-quinolinyl]-N-(5-chloro-2-pyridyl)acetamide], the fold induction at 25 µM under setting [2] is 46.4.

With `O=C(Cn1cc(C(=O)c2ccccc2)c(=O)c2cc3c(cc21)OCO3)Nc1ccc2c(c1)OCO2` [Example 64, 2-(3-Benzoyl-6,7-methylenedioxy-4-oxo-1-quinolinyl)-N-(3,4-methylenedioxyphenyl)acetamide], the fold induction at 25 µM by setting is: under setting [2], 27.9; under setting [3], 41.1.

Regarding `O=C(Cn1cc(C(=O)c2ccc3ccccc3c2)c(=O)c2cc3c(cc21)OCO3)Nc1ccc(OC(F)(F)F)cc1` [Example 5, 2-[6,7-Methylenedioxy-3-(2-naphthoyl)-4-oxo-1-quinolinyl]-N-(4-trifluoromethoxyphenyl)acetamide], the fold induction at 25 µM under setting [4] was 4.3.

Regarding `CCOc1ccc(NC(=O)Cn2cc(C(=O)c3ccc(CC)cc3)c(=O)c3cc4c(cc32)OCO4)cc1` [Example 71, N-(4-Ethoxyphenyl)-2-[3-(4-ethylbenzoyl)-6,7-methylenedioxy-4-oxo-1-quinolinyl]acetamide], the fold induction at 25 µM under setting [2] was found to be 25.1 and the fold induction at 25 µM under setting [3] came out at 43.6.

With `Cc1ccc(C(=O)c2cn(CC(=O)Nc3ccc4c(c3)OCO4)c3cc4c(cc3c2=O)OCO4)cc1C` [Example 76, 2-[3-(3,4-Dimethylbenzoyl)-6,7-methylenedioxy-4-oxo-1-quinolinyl]-N-(3,4-methylenedioxyphenyl)-acetamide], the fold induction at 25 µM is 23.9 under setting [2] and 43.6 under setting [3].

Take `O=C(Cn1cc(C(=O)c2ccc(Cl)cc2)c(=O)c2cc3c(cc21)OCO3)Nc1ccc(Cl)cc1` [Example 51, 2-[3-(4-Chlorobenzoyl)-6,7-methylenedioxy-4-oxo-1-quinolinyl]-N-(4-chlorophenyl)acetamide]: the fold induction at 25 µM was found to be 66.7 under setting [2] and 174 under setting [3].

Regarding `O=C(Cn1cc(C(=O)c2ccc3ccccc3c2)c(=O)c2cc3c(cc21)OCO3)Nc1cccnc1` [Example 12, 2-[6,7-Methylenedioxy-3-(2-naphthoyl)-4-oxo-1-quinolinyl]-N-(3-pyridyl)acetamide], under setting [4], the fold induction at 25 µM stood at 3.2.

For `COc1ccc(NC(=O)Cn2cc(C(=O)c3ccc(F)cc3)c(=O)c3cc4c(cc32)OCCO4)cc1` [Example 108, N-p-Anisyl-2-[6,7-ethylenedioxy-3-(4-fluorobenzoyl)-4-oxo-1-quinolinyl]acetamide], under setting [1], the fold induction at 25 µM turned out to be 1.3.

For the compound `CN(C(=O)Cn1cc(C(=O)c2ccc3ccccc3c2)c(=O)c2cc3c(cc21)OCO3)c1ccc(Cl)cc1` [Example 15, N-(4-Chlorophenyl)-N-methyl-2-[6,7-methylenedioxy-3-(2-naphthoyl)-4-oxo-1-quinolinyl]acetamide], the fold induction at 25 µM under setting [4] was found to be 4.3.

`COc1ccc(NC(=O)Cn2cc(C(=O)c3ccc(Cl)cc3)c(=O)c3cc(OC)c(OC)cc32)cc1` [Example 104, N-p-Anisyl-2-[3-(4-chlorobenzoyl)-6,7-dimethoxy-4-oxo-1-quinolinyl]acetamide]: the fold induction at 25 µM under setting [1] came to 1.4.

For `Cc1ccc(C(=O)c2cn(CC(=O)Nc3ccc(Cl)cc3)c3cc4c(cc3c2=O)OCO4)cc1` [Example 49, N-(4-Chlorophenyl)-2-(3-p-toluoyl-6,7-methylenedioxy-4-oxo-1-quinolinyl)acetamide], the fold induction at 25 µM is, setting by setting: under setting [2], 56.4; under setting [3], 152.

Turning to `COc1cccc2c(=O)c(C(=O)c3ccc(F)cc3)cn(CC(=O)Nc3ccc(Cl)cc3)c12` [Example 43], the fold induction at 25 µM under setting [4] turned out to be 3.8.

Regarding `COc1ccc(NC(=O)Cn2cc(C(=O)c3ccccc3)c(=O)c3cc(OC)c(OC)cc32)cc1` [Example 103, N-p-Anisyl-2-(3-benzoyl-6,7-dimethoxy-4-oxo-1-quinolinyl)acetamide], the fold induction at 25 µM under setting [1] worked out at 3.7.

`O=C(Cn1cc(C(=O)c2ccc3ccccc3c2)c(=O)c2nc(O)ccc21)Nc1ccc(Cl)cc1` [Example 22, N-(4-Chlorophenyl)-2-[6-hydroxy-3-(2-naphthoyl)-4-oxo-(1,5-naphthyridin-1-yl)]-acetamide]: the fold induction at 25 µM under setting [4] was determined as 20.2.

`COc1ccc2c(c1)c(=O)c(C(=O)c1ccc(F)cc1)cn2CC(=O)Nc1ccc(C)cc1` [Example 37, 2-[3-(4-fluorobenzoyl)-6-methoxy-4-oxo-1-quinolinyl]-N-p-tolylacetamide]: the fold induction at 25 µM under setting [4] was 8.4.

For `COc1cccc(NC(=O)Cn2cc(C(=O)c3ccc(Cl)cc3)c(=O)c3cc4c(cc32)OCO4)c1` [Example 69, N-(m-Anisyl)-2-[3-(4-chlorobenzoyl)-6,7-methylenedioxy-4-oxo-1-quinolinyl]acetamide], the fold induction at 25 µM amounted to 4 under setting [2] and 4.6 under setting [3].

Consider `COc1cc(NC(=O)Cn2cc(C(=O)c3ccc(C)c(C)c3)c(=O)c3cc4c(cc32)OCO4)cc(OC)c1` [Example 73, N-(3,5-Dimethoxyphenyl)-2-[3-(3,4-dimethylbenzoyl)-6,7-methylenedioxy-4-oxo-1-quinolinyl]acetamide], for which the fold induction at 25 µM runs as follows: under setting [2], 17.1; under setting [3], 15.2.

Regarding `O=C(Cn1cc(S(=O)(=O)c2ccccc2)c(=O)c2cc3c(cc21)OCO3)Nc1ccccc1` [Example 79, 2-(3-Benzenesulfonyl-6,7-methylenedioxy-4-oxo-1-quinolinyl)-N-phenylacetamide], the fold induction at 25 µM under setting [2] worked out at 3.2.

For the compound `COc1cccc(NC(=O)Cn2cc(C(=O)c3ccccc3)c(=O)c3cc4c(cc32)OCO4)c1` [Example 68, N-(m-Anisyl)-2-(3-benzoyl-6,7-methylenedioxy-4-oxo-1-quinolinyl)acetamide], the fold induction at 25 µM is, setting by setting: under setting [2], 6.7; under setting [3], 10.1.

With `O=C(Cn1cc(C(=O)c2ccc3ccccc3c2)c(=O)c2cc3c(cc21)OCO3)Nc1ccc(Cl)cc1Cl` [Example 6, N-(2,4-DichlorophenyI)-2-[6,7-methylenedioxy-3-(2-naphthoyl)-4-oxo-1-quinolinyl]acetamide], the fold induction at 25 µM under setting [4] was found to be 1.7.

Consider `Cc1ccc(C(=O)c2cn(CC(=O)Nc3ccc(F)cc3)c3cc4c(cc3c2=O)OCO4)cc1` [Example 62, N-(4-Fluorophenyl)-2-(6,7-methylenedioxy-4-oxo-3-p-toluoyl-1-quinolinyl)acetamide], for which the fold induction at 25 µM by setting is: under setting [2], 26.1; under setting [3], 51.

With `O=C(Cn1cc(C(=O)c2ccc(F)cc2)c(=O)c2cc3c(cc21)OCO3)Nc1ccc(F)cc1` [Example 55, 2-[3-(4-Fluorobenzoyl)-6,7-methylenedioxy-4-oxo-1-quinolinyl]-N-(4-fluorophenyl)acetamide], the fold induction at 25 µM came to 19.6 under setting [2] and 6.3 under setting [3].

Turning to `O=C(Cn1cc(C(=O)c2ccc(Cl)cc2)c(=O)c2cc3c(cc21)OCO3)Nc1ccc2c(c1)OCO2` [Example 88, 2-[3-(4-Chlorobenzoyl)-6,7-methylenedioxy-4-oxo-1-quinolinyl]-N-(3,4-methylenedioxyphenyl)acetamide], under setting [2], the fold induction at 25 µM was 31.4.

As for `CCCc1ccc(NC(=O)Cn2cc(C(=O)c3ccc4ccccc4c3)c(=O)c3cc4c(cc32)OCO4)cc1` [Example 9, 2-[6,7-Methylenedioxy-3-(2-naphthoyl)-4-oxo-1-quinolinyl]-N-(4-propylphenyl)acetamide], the fold induction at 25 µM under setting [4] came to 2.

For `COc1ccc(C(=O)c2cn(CC(=O)Nc3ccc4c(c3)OCO4)c3cc4c(cc3c2=O)OCO4)cc1` [Example 59, 2-(3-p-Anisoyl-6,7-methylenedioxy-4-oxo-1-quinolinyl)-N-(3,4-methylenedioxyphenyl)acetamide], the fold induction at 25 µM by setting is: under setting [2], 13.4; under setting [3], 7.6.

As to `COc1ccc(NC(=O)Cn2cc(C(=O)c3ccc(C)c(C)c3)c(=O)c3cc4c(cc32)OCO4)c(OC)c1` [Example 30, N-(2,4-Dimethoxyphenyl)-2-[3-(3,4-dimethylbenzoyl)-6,7-methylenedioxy-4-oxo-1-quinolinyl]acetamide], the fold induction at 25 µM under setting [2] is 28.2 and the fold induction at 25 µM under setting [4] was determined as 4.1.

On to `COc1ccc(C(=O)c2cn(CC(=O)Nc3ccc4c(c3)OCCO4)c3cc4c(cc3c2=O)OCO4)cc1` [Example 58, 2-(3-p-Anisoyl-67-methylenedioxy-4-oxo-1-quinolinyl)-N-(3,4-ethylenedioxyphenyl)acetamide], for which the fold induction at 25 µM reads like this: under setting [2], 3.6; under setting [3], 2.5.

As to `COc1ccc(NC(=O)Cn2cc(C(=O)c3ccc(F)cc3)c(=O)c3cc4c(cc32)OCO4)cc1OC` [Example 31, N-(3,4-Dimethoxyphenyl)-2-[3-(4-fluorobenzoyl)-6,7-methylenedioxy-4-oxo-1-quinolinyl]acetamide], the fold induction at 25 µM under setting [2] is 49.5.

As for `Cc1ccc(C(=O)c2cn(CC(=O)Nc3ccc(N(C)C)cc3)c3cc4c(cc3c2=O)OCO4)cc1C` [Example 35], the fold induction at 25 µM under setting [2] came out at 6.3.

Take `COc1cccc2c1c(=O)c(C(=O)c1ccc(F)cc1)cn2CC(=O)Nc1ccc(Cl)cc1` [Example 25]: the fold induction at 25 µM under setting [4] is 34.6.
